Assay results taken from PubChem BioAssay (NCI).
Where “and” joins values, the source holds several entries; their conditions need not be identical. Identical values can stand only once.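 Five compound concentrations were applied to cells in 96-well plates for 48 hours; endpoints were derived by simple linear interpolation of the resulting dose-response curve. GI50 marks 50% less growth. TGI: total growth inhibition.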

Columns and labels:
Test in all cases: NCI-60 cell line screen, 48 h
[1] = system: HCT-116 colon
[2] = system: OVCAR-4 ovarian
[3] = system: SF-295 CNS
[4] = system: SW-620 colon
[5] = system: SK-OV-3 ovarian
[6] = system: UACC-257 melanoma
[7] = system: M14 melanoma
[8] = system: NCI-H460 lung
[9] = system: ACHN renal
[10] = system: HCT-15 colon

Row | Structure (SMILES) | GI50 [1] | TGI [1] | GI50 [2] | TGI [2] | GI50 [3] | TGI [3] | GI50 [4] | TGI [4] | GI50 [5] [µM] | TGI [5] [µM] | GI50 [6] | TGI [6] | GI50 [7] | TGI [7] | GI50 [8] | TGI [8] | GI50 [9] | TGI [9] | GI50 [10] | TGI [10]
1 | Oc1c(Cl)cc(Cl)cc1Sc1cc(Cl)cc(Cl)c1O | 2.87 µM and 2.44 µM | 9 µM and 6.51 µM | 3.97 µM and 3.2 µM | 14.3 µM and 11.7 µM | 2.33 µM and 2.34 µM | 6.47 µM and 6.51 µM | 3.32 µM and 3.06 µM | 13.2 µM and 12.5 µM | 2.66 | 7.04 | 2.65 µM and 1.94 µM | 7.86 µM and 5.71 µM | 3.88 µM and 4.02 µM | 15.3 µM and 14.5 µM | 2.98 µM and 2.56 µM | 9.91 µM and 8.1 µM | 2.92 µM and 3.27 µM | 10.7 µM and 11.3 µM | 3.44 µM and 3.06 µM | 14.8 µM and 12.5 µM
2 | Nc1cc2[nH]cnc2c(=O)[nH]1 |  | > 300 µM |  | > 300 µM |  | > 300 µM |  | > 300 µM |  | > 188 |  | > 300 µM |  | > 300 µM |  | > 300 µM |  | > 300 µM |  | > 300 µM
3 | C[C@]12CC[C@@H](OC(=O)N(CCCl)N=O)C[C@@H]1CC[C@@H]1[C@@H]2CC[C@]2(C)C(=O)CC[C@@H]12 | 7.25 µM | 30.5 µM | 14.9 µM | 53.4 µM | 0.308 µM | > 51.1 µM | 7.67 µM | 22.6 µM | 3.43 | 14.3 | 3.99 µM | 23.9 µM | 14.7 µM | 44.9 µM | 0.247 µM | 1.75 µM | 0.487 µM | 13.8 µM | 12.1 µM | 32.4 µM
4 | COc1cc(C2c3cc4c(cc3[C@@H](OCCN(C)C)C3COC(=O)[C@H]23)OCO4)cc(OC)c1O (some centres not stated) |  | 7.33 µM |  | 6.33 µM |  | 0.998 µM |  | 3.59 µM |  | 1.6 |  | 8.25 µM |  | 3.22 µM |  | 0.441 µM |  | 0.197 µM |  | 3.12 µM
5 | O=C(O)c1cccc(/C=C/c2ccccc2)c1 |  | > 100 µM |  | > 100 µM |  | > 100 µM |  | > 100 µM |  | > 100 |  | > 100 µM |  | > 100 µM |  | > 100 µM |  | > 100 µM |  | > 100 µM
6 | CC[C@]1(O)C[C@@H]2CN(CCc3c([nH]c4ccccc34)[C@@](C(=O)OC)(c3cc4c(cc3OC)N(C)[C@H]3[C@@](O)(C(N)=O)[C@H](O)[C@]5(CC)[C@@H]6C[C@@H]6CN6CC[C@]43[C@@H]65)C2)C1 | < 0.00333 µM |  | 0.0931 µM | > 33.3 µM | 0.00441 µM | 2.09 µM | < 0.00333 µM | > 33.3 µM | < 0.00333 | > 33.3 | > 33.3 µM | > 33.3 µM | 0.00605 µM | 0.956 µM | 0.00366 µM | > 33.3 µM | 0.161 µM | > 33.3 µM | 0.148 µM | > 21.4 µM
7 | N=c1ccc2nc3c(cc(N)c4ccccc43)oc-2c1 | 0.167 µM | 0.353 µM | 0.0919 µM | 0.235 µM | 0.199 µM | 0.599 µM | 0.252 µM | 0.754 µM | 0.477 | 1.73 | 0.271 µM | 0.819 µM | 0.164 µM | 0.338 µM | 0.223 µM | 0.565 µM | 0.325 µM | 1.44 µM | 0.214 µM | 1.13 µM
8 | COC(=O)C1Cc2c([nH]c3ccccc23)C(c2ccccc2O)N1Cc1ccccc1 (configuration not stated) |  | > 31.6 µM |  | 33.6 µM |  | 42.6 µM |  | > 46.4 µM |  | 40.1 |  | > 46.4 µM |  | > 46.4 µM |  | > 46.4 µM |  | 39.9 µM |  | > 46.4 µM
9 | CNCCNc1nc2ccccc2c2c(=O)c3cc(OC)ccc3sc12 | 1.34 µM | 2.62 µM | 1.68 µM | 3.22 µM | 1.82 µM | 3.36 µM | 1.41 µM | 2.91 µM | 1.82 | 3.97 | 1.89 µM | 3.75 µM | 1.73 µM | 3.23 µM | 1.71 µM | 3.25 µM | 1.58 µM | 2.93 µM | 1.39 µM | 2.83 µM
10 | COC(=O)[C@H]1N[C@@H](C(=O)OC)C23CCC[C@H]2CC[C@]1(C(OC)OC)C3 |  | > 100 µM |  | > 100 µM |  | > 100 µM |  | > 100 µM |  | > 100 |  | > 100 µM |  | > 100 µM |  | > 100 µM |  | > 100 µM |  | > 100 µM
11 | CC(/C=C/NNC1=NC(c2ccccc2)C(c2ccccc2)=NN1)Sc1ccccc1N (configuration not stated) |  | 21.8 µM |  | 20 µM |  | 22.4 µM |  | 7.75 µM |  | 31 |  | 19.9 µM |  | 10.6 µM |  | 24.9 µM |  | 22.2 µM |  | 19.8 µM
12 | CCOC(=O)c1c2c(n(Cc3ccccc3)c1C)-c1nc(Cc3ccccc3)[nH]c1C(=O)C2=O | 1.49 µM | 2.9 µM | 1.03 µM | 2.76 µM | 1.92 µM | 4.14 µM | 1.84 µM | 3.28 µM | 2.31 | 5.19 | 2.82 µM | 8.71 µM | 1.75 µM | 3.49 µM | 1.96 µM | 4.22 µM | 1.64 µM | 3 µM | 1.59 µM | 2.94 µM
13 | O=C(N/N=C/c1ccc(Cl)cc1)c1[nH]c2ccc(Cl)cc2c1-c1ccccc1 | 0.114 µM | 1.56 µM | 0.183 µM | > 79.3 µM | 0.0815 µM | 2.58 µM | 0.159 µM | > 100 µM | 0.387 |  | 7.42 µM | > 100 µM | 0.0937 µM | 18.5 µM | 0.328 µM | 3.99 µM | 0.199 µM | > 45.3 µM | 0.255 µM | 
14 | COc1cc2ncnc3c2cc1OCCCCCN(C)Cc1ccc(Br)cc1N3 | 13.9 µM and 1.48 µM | > 100 µM | 2.57 µM and 1.34 µM | 43.1 µM and > 10 µM | 14.1 µM and 5.13 µM | > 100 µM | 6.31 µM and 5.72 µM | > 100 µM | 0.315 | 1.09 | 17.9 µM and > 10 µM | > 100 µM | 1.94 µM and 0.939 µM | > 100 µM | 3.44 µM and 1.27 µM | > 100 µM | 0.0871 µM and 0.262 µM | 37.5 µM and > 10 µM | 0.885 µM and 0.975 µM | > 100 µM
15 | Cc1nn(CNc2ccccc2C(F)(F)F)c(=S)n1/N=C/c1ccc(F)cc1 | 91.2 µM | > 100 µM | 23.3 µM | 70.6 µM | > 100 µM | > 100 µM | > 100 µM | > 100 µM | > 100 | > 100 | 59.2 µM | > 100 µM | 87.9 µM | > 100 µM | > 100 µM | > 100 µM | > 100 µM | > 100 µM | 53.7 µM | > 100 µM
16 | COc1ccc([C@@H](O)c2cc(-c3ncnc4cc(N5CCOCC5)ccc34)c(F)cc2Cl)nn1 | 3.29 µM | 21.4 µM | 6.12 µM | > 100 µM | 1.48 µM | 25.8 µM | 6.78 µM | 52.2 µM | 1.27 | 10.7 | 1.99 µM | 30 µM | 4.91 µM | 28.5 µM | 2.92 µM | 43.4 µM | 2.53 µM | 91 µM | 3.08 µM | 23.2 µM
17 | COc1cc(/C=C2\CN(C(=O)CCN3CCC(=NO)CC3)C/C(=C\c3cc(OC)c(OC)c(OC)c3)C2=O)cc(OC)c1OC | 0.206 µM | 0.467 µM | 0.733 µM | 2.15 µM | 0.656 µM | 1.67 µM | 0.273 µM | 0.86 µM | 1.87 | 4.78 | 0.51 µM | 2.44 µM | 0.248 µM | 0.812 µM | 0.282 µM | 0.847 µM | 0.837 µM | 2.51 µM | 0.972 µM | 3.22 µM
18 | NC(=O)c1csc(C2CCC(CO)O2)n1 (configuration not stated) |  | > 100 µM |  | > 100 µM |  | > 100 µM |  | > 100 µM |  | > 100 |  | > 100 µM |  | > 100 µM |  | > 100 µM |  | > 100 µM |  | > 100 µM
